# Experimental data published in paper PMC6409486 (Stem Cell Reports, 2019).
# “Also recorded” adds a separate entry of the source. Read-outs that look alike come from different tables or passages of the source.
# Experiments:
# [1] = biological target: T1, CDK9 (Homo sapiens, UniProt P50750); settings: 10 μM; ref Fabian et al., 2005; http://lincs.hms.harvard.edu/db/datasets/20044/; cited from earlier work
# [2] = test system: mouse ESC-derived MNs; assay: MN survival with DetaNO; assay type: cell-based
# [3] = biological target: T2, CDK7 (Homo sapiens, UniProt P50613); settings: 10 μM; ref Fabian et al., 2005; http://lincs.hms.harvard.edu/db/datasets/20044/; cited from earlier work
# T2 sequence (P50613 whole entry, species assumed): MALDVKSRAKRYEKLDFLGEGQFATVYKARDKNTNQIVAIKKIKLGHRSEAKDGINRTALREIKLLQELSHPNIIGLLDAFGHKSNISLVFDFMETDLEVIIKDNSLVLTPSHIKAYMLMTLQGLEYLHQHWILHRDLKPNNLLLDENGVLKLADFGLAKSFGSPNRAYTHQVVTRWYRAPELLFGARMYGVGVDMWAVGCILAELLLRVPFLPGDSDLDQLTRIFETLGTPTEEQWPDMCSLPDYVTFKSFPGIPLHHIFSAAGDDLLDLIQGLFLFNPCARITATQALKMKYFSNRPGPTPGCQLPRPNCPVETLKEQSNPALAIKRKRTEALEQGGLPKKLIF
# T2 sequence (P51946 whole entry partner, species assumed): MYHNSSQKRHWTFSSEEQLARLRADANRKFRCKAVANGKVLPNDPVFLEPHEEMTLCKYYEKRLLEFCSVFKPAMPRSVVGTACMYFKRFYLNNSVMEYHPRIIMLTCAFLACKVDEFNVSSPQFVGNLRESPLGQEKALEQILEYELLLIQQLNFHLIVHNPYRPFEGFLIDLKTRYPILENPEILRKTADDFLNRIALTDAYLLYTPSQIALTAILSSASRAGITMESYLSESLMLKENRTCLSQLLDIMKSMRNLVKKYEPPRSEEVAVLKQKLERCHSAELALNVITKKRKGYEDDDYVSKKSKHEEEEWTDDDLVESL
# T2 sequence (P51948 whole entry partner, species assumed): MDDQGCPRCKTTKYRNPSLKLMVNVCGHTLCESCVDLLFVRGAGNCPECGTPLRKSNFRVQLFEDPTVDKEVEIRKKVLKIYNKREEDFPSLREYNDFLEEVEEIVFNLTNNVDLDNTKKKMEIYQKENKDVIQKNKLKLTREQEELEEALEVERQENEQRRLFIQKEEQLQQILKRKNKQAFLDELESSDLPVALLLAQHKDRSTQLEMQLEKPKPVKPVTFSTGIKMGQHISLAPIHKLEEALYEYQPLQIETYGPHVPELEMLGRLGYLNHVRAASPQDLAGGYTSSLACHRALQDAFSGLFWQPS
# [4] = test system: mouse ESC-derived MNs; assay: MN survival with activated BV2 cells; assay type: cell-based
# [5] = test system: human iPSC-derived MNs; assay: TUBB3 immunostaining and neurite segmentation of human MNs with DetaNO; assay type: cell-based
# [6] = test system: mouse ESC-derived MNs; assay: Compounds on unstressed MNs; assay type: cell-based; settings: for toxicity to unstressed MNs: absence of any stress; for survival of unstressed MNs: unstressed conditions
# [7] = test system: human iPSC-derived MNs; assay: CellTiter-Glo assay, human MNs stressed with 400 μM DetaNO; assay type: cell-based
# [8] = biological target: GSK3β (Homo sapiens, UniProt P49841); settings: 1 μM; ref Chen et al., 2016; cited from earlier work
# Sequence of GSK3β (P49841 whole entry, species assumed): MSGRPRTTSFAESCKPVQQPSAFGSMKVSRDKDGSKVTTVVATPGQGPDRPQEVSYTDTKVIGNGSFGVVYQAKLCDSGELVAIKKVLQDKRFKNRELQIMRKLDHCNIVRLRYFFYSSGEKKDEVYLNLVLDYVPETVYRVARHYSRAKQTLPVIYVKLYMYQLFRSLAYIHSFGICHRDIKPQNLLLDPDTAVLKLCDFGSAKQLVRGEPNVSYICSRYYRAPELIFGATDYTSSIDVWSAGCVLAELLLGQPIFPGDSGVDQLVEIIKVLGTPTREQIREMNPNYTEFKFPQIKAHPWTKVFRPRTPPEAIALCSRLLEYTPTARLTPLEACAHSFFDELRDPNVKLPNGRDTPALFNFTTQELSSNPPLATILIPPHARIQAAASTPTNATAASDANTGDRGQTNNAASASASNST
# [9] = test system: FACS-purified mouse ESC-derived MNs; assay: FACS-purified MNs cultured with DetaNO in the absence of astrocytes; assay type: cell-based
# [10] = test system: mouse ESC-derived MNs; assay: CHIR rescue of CP681301-mediated cytotoxicity; assay type: cell-based; settings: 5 μM CP681301, increasing concentrations of CHIR (1.25-2.5 µM)
# [11] = biological target: T2, CDK7; assay: CDK7 LANCE Assay; settings: biochemical profiling
# [12] = test system: iPSC-derived MNs; assay: Label-free quantitative phosphoproteomics of DetaNO-treated MNs; assay type: cell-based, human
# [13] = biological target: T1, CDK9; assay: CDK9 LANCE Assay; settings: biochemical profiling
# T1 sequence (P50750 whole entry, species assumed): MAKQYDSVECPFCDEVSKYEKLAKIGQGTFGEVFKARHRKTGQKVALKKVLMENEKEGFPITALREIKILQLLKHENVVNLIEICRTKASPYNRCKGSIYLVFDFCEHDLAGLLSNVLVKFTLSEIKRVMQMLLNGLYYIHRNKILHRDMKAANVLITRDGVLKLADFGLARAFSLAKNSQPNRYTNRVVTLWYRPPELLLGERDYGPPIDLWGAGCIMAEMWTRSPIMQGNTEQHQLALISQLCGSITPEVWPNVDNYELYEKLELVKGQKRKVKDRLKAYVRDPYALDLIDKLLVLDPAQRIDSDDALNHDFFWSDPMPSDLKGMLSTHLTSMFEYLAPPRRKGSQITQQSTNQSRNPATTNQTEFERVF
# T1 sequence (O60563 whole entry partner, species assumed): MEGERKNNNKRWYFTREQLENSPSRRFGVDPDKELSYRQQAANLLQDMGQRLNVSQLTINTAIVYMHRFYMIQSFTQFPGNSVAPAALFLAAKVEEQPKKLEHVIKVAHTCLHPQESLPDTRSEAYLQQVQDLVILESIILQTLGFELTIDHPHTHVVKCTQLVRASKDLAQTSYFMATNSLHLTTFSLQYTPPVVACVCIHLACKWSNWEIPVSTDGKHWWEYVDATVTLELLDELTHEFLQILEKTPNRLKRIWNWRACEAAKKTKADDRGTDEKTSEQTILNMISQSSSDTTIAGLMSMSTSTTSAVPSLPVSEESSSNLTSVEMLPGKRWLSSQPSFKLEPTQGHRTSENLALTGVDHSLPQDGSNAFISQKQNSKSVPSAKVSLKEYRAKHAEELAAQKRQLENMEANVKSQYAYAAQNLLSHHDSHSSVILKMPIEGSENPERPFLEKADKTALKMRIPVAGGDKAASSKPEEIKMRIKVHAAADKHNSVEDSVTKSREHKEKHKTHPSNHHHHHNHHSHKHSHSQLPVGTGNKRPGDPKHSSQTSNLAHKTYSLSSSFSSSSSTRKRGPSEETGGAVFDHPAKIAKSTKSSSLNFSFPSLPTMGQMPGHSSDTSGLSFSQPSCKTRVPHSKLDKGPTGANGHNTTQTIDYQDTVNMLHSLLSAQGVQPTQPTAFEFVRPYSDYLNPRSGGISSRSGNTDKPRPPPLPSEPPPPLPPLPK
Compound,protection of MNs from DetaNO-induced degeneration (words) [2],protection of MNs from activated BV2-induced degeneration (words) [4],toxicity to unstressed MNs [6],further results
CC(=O)c1c(C)c2cnc(Nc3ccc(N4CCNCC4)cn3)nc2n(C2CCCC2)c1=O [PD332991],not neuroprotective,,,ATP binding to CDK9 [1]: significantly reduces ATP binding; ATP binding to CDK7 [3]: significantly reduces ATP binding
COc1ccc(F)c(F)c1C(=O)c1cnc(NC2CCN(S(C)(=O)=O)CC2)nc1N [R-547],robustly protected; also recorded: rescued,robustly protected; also recorded: rescued,,
NS(=O)(=O)c1ccc(Nc2nc(OCC3CCCCC3)c3[nH]cnc3n2)cc1 [NU6102],not protective,,,
"NCCN(CCN)/[N+]([O-])=N/O [DetaNO, diethylenetriamine/NO adduct]",,,,"number of TUBB3-positive punctae ([5]; 400 μM DetaNO for 24 h): large increase; area of TUBB3-positive neurite segments ([5]; iPSC-derived MNs, DetaNO): decreased"
CC(C)(C)c1cnc(CSc2cnc(NC(=O)C3CCNCC3)s2)o1 [BMS-387032],robustly protected; also recorded: rescued,robustly protected; also recorded: rescued,induced toxicity,
"CC1CCN=C(N)S1 (centres unmarked) [AMT, 2-amino-5,6-dihydro-6-methyl-4H-1,3-thiazine]",,rescued,,
CCc1cnn2c(NCc3ccc[n+]([O-])c3)cc(N3CCCC[C@H]3CCO)nc12 [dinaciclib],robustly protected,robustly protected,induced toxicity,"rescue of human MNs from DetaNO stress, CellTiter-Glo ATP levels [7]: potently rescued; protection of MNs from DetaNO-induced degeneration (words) ([2]; listed as Dinaciclib): rescued; reduction of the activity of GSK3β [8]: about 70%; protection of FACS-purified MNs from DetaNO-induced degeneration [9]: protected; protection of MNs from activated BV2-induced degeneration (words) ([4]; listed as Dinaciclib): rescued"
Cc1c[nH]c(-c2cnc(NCCNc3ccc(C#N)cn3)nc2-c2ccc(Cl)cc2Cl)n1 [CHIR],failed to protect,,did not show any cytotoxic effects,"rescue of MNs from CP681301-mediated cytotoxicity [10]: rescued; survival of unstressed MNs [6]: small, but significant increase"
CN1CC[C@H](c2c(O)cc(O)c3c(=O)cc(-c4ccccc4Cl)oc23)[C@H](O)C1 [flavopiridol],robustly protected; also recorded: rescued,robustly protected; also recorded: rescued,induced toxicity,
O=C1Cc2c([nH]c3ccc(Br)cc23)-c2ccccc2N1 [kenpaullone],robustly protected,,no visible toxicity,"inhibition of CDK7 [11]: does not inhibit; phosphopeptide levels of MAPT, MAP1B and MAP2 ([12]; DetaNO-treated iPSC-derived MNs): consistently decreased; phosphorylation levels of CLASP1, CLASP2 and DPYSL2 ([12]; compared with MNs cultured with DetaNO): reduced; inhibition of CDK9 [13]: does not inhibit; protection of human MN neurites from DetaNO, TUBB3 neurite segments ([5]; 400 μM DetaNO, 0.625 μM kenpaullone, two iPSC lines): robustly protected; survival of unstressed MNs [6]: small increase in MN survival"
